Laboratory results from paper PMC12300041, “Tricyclic Isatin Derivatives as Anti-Inflammatory Compounds with High Kinase Binding Affinity” (Molecules, 2025).

Columns and labels:
[1] = tested on: proinflammatory cytokine production; test: Multiplex human cytokine ELISA, LPS-stimulated MonoMac-6 cells; format: cell-based; conditions: 10 μM compound, 24 h, versus DMSO-treated control
Source text: A multiplex human cytokine ELISA kit from Anogen (Mississauga, ON, Canada) was used to evaluate various cytokines (IL-1α, IL-1β, IL-6, GM-CSF, MCP-1, IFN-γ, and TNF) in the supernatants of MonoMac-6 cells.

THP-1 Cells = test: Cytotoxicity, CellTiter-Glo; format: cell-based, human; conditions: 24 h incubation; N.T.: no cytotoxicity at concentrations up to 50 µM
Method: (§1) Cytotoxicity was analyzed with a CellTiter-Glo Luminescent Cell Viability Assay Kit from Promega (Madison, WI, USA) according to the manufacturer’s protocol. THP-1Blue cells were treated with varying concentrations of the test compounds (up to 50 µM) and cultivated for 24 h. After treatment, the cells were allowed to equilibrate to room temperature for 30 min, the substrate was added, and the samples were analyzed with a Fluoroscan Ascent FL (Thermo Fisher Scientific, Waltham, MA, USA).

[2] = Cytotoxicity, CellTiter-Glo; format: cell-based, human; conditions: human, THP-1Blue cells; 24 h incubation; N.T.: no cytotoxicity at concentrations up to 50 µM
Method: as §1

MonoMac-6 Cells = test: Cytotoxicity, CellTiter-Glo; format: cell-based, human; conditions: 24 h incubation; N.T.: no cytotoxicity at concentrations up to 50 µM
[3] = Cytotoxicity, CellTiter-Glo; format: cell-based, human; conditions: human, MonoMac-6 cells; 24 h incubation; N.T.: no cytotoxicity at concentrations up to 50 µM
HASPIN = molecular target: T1, HASPIN (Homo sapiens, UniProt Q8TF76); test: KINOMEscan; format: binding; conditions: Haspin; N.B.: no binding at concentrations up to 30 µM
T1 construct: purchased Eurofins Pharma Discovery (KINOMEscan)
T1 sequence (Q8TF76 1-798): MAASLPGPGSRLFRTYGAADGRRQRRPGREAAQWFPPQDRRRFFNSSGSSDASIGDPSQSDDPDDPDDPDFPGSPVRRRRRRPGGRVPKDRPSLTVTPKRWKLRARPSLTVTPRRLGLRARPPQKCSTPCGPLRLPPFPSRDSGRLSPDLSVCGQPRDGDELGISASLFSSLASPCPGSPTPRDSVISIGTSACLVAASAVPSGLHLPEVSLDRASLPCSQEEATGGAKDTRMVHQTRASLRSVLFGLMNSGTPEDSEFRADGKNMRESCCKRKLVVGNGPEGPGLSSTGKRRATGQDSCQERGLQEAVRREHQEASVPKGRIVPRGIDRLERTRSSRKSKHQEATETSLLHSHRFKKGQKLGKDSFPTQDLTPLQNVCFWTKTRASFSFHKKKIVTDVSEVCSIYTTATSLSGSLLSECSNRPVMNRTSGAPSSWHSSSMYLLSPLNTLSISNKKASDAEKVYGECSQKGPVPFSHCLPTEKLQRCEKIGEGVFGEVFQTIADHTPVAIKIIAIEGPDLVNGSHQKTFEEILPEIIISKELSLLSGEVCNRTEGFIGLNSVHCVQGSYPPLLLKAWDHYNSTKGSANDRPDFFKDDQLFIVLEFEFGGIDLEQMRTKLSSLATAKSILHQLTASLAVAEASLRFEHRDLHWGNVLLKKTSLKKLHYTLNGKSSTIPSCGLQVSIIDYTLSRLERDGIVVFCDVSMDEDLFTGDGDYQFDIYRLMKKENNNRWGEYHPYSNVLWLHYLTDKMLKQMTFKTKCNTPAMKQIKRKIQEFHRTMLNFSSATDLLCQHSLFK
Method: (§2) Kinase profiling was performed by KINOMEscan (Eurofins Pharma Discovery, San Diego, CA, USA), using a panel of 423 protein kinases, as described previously. Compounds were submitted for dissociation constant (Kd) determination toward several target kinases using KINOMEscan. […] Binding reactions were performed at room temperature for 1 h, and the fraction of kinase not bound to the test compound was determined by capture with an immobilized affinity ligand and quantified by quantitative polymerase chain reaction. The primary screening at fixed concentrations of the compound was performed in duplicate. For dissociation constant Kd determination, a 12-point half-log dilution series (a maximum concentration of 33 μM) was used.

HIPK3 = molecular target: T2, HIPK3 (Homo sapiens, UniProt Q9H422); test: KINOMEscan; format: binding; conditions: HIPK3; N.B.: no binding at concentrations up to 30 µM
T2 construct: purchased Eurofins Pharma Discovery (KINOMEscan)
T2 sequence (Q9H422 whole entry): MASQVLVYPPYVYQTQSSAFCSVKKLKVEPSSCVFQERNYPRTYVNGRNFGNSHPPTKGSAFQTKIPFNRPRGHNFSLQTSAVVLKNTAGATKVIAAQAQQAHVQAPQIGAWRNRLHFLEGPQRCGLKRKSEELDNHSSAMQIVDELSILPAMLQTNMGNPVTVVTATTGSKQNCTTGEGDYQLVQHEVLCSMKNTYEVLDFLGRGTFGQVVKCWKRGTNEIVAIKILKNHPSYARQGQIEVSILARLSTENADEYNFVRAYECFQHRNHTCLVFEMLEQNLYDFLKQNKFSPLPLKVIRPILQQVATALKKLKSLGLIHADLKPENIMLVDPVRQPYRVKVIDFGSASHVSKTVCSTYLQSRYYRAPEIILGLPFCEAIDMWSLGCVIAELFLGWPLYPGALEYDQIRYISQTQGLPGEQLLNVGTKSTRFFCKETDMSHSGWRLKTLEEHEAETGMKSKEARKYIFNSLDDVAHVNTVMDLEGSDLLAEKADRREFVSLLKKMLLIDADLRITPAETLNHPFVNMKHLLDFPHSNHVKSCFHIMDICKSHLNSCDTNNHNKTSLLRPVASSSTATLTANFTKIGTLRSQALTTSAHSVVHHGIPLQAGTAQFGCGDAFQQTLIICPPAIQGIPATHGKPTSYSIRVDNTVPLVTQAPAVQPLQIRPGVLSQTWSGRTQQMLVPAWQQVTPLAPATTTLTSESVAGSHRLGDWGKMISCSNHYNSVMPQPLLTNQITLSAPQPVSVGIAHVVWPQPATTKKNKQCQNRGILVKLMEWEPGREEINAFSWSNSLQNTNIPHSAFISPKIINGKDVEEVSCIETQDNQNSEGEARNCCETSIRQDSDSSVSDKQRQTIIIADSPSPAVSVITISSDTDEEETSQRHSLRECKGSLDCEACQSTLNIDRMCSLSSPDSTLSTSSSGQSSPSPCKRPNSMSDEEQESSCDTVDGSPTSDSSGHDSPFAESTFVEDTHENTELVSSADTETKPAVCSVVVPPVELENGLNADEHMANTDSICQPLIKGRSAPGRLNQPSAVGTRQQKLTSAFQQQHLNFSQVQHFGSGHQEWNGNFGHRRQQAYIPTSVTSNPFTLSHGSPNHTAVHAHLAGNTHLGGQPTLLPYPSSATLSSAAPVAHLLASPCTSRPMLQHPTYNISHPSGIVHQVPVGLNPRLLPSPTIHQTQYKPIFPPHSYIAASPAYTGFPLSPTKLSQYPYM
Method: as §2

DYRK1A = molecular target: T3, DYRK1A (Homo sapiens, UniProt Q13627); test: KINOMEscan; format: binding; conditions: DYRK1A; N.B.: no binding at concentrations up to 30 µM
T3 construct: purchased Eurofins Pharma Discovery (KINOMEscan)
Method: as §2

HIPK1 = molecular target: T4, HIPK1 (Homo sapiens, UniProt Q86Z02); test: KINOMEscan; format: binding; conditions: HIPK1; N.B.: no binding at concentrations up to 30 µM
T4 construct: purchased Eurofins Pharma Discovery (KINOMEscan)
Method: as §2

IRAK1 = molecular target: T5, IRAK1 (Homo sapiens, UniProt P51617); test: KINOMEscan; format: binding; conditions: IRAK1; N.B.: no binding at concentrations up to 30 µM
T5 construct: purchased Eurofins Pharma Discovery (KINOMEscan)
T5 sequence (P51617 whole entry): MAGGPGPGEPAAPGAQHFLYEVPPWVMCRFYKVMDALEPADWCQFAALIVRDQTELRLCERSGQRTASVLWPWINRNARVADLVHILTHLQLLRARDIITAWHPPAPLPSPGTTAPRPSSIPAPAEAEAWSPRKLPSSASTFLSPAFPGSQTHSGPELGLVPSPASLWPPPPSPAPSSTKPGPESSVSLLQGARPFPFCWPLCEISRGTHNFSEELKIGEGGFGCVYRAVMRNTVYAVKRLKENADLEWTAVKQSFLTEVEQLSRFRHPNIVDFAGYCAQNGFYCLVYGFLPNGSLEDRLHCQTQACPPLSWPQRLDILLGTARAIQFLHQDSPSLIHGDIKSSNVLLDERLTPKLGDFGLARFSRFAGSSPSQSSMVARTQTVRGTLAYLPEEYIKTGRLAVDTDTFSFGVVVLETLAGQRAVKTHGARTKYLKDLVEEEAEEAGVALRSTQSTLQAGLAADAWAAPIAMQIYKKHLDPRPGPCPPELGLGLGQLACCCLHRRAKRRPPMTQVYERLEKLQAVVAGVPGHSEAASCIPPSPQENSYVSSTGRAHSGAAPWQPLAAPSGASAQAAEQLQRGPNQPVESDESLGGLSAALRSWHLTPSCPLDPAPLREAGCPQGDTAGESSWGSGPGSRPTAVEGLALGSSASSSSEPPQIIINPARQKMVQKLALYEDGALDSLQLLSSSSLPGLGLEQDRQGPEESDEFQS
Method: as §2

NEK10 = molecular target: T6, NEK10 (Homo sapiens, UniProt Q6ZWH5); test: KINOMEscan; format: binding; conditions: NEK10; N.B.: no binding at concentrations up to 30 µM
T6 construct: purchased Eurofins Pharma Discovery (KINOMEscan)
T6 sequence (Q6ZWH5 1-1172): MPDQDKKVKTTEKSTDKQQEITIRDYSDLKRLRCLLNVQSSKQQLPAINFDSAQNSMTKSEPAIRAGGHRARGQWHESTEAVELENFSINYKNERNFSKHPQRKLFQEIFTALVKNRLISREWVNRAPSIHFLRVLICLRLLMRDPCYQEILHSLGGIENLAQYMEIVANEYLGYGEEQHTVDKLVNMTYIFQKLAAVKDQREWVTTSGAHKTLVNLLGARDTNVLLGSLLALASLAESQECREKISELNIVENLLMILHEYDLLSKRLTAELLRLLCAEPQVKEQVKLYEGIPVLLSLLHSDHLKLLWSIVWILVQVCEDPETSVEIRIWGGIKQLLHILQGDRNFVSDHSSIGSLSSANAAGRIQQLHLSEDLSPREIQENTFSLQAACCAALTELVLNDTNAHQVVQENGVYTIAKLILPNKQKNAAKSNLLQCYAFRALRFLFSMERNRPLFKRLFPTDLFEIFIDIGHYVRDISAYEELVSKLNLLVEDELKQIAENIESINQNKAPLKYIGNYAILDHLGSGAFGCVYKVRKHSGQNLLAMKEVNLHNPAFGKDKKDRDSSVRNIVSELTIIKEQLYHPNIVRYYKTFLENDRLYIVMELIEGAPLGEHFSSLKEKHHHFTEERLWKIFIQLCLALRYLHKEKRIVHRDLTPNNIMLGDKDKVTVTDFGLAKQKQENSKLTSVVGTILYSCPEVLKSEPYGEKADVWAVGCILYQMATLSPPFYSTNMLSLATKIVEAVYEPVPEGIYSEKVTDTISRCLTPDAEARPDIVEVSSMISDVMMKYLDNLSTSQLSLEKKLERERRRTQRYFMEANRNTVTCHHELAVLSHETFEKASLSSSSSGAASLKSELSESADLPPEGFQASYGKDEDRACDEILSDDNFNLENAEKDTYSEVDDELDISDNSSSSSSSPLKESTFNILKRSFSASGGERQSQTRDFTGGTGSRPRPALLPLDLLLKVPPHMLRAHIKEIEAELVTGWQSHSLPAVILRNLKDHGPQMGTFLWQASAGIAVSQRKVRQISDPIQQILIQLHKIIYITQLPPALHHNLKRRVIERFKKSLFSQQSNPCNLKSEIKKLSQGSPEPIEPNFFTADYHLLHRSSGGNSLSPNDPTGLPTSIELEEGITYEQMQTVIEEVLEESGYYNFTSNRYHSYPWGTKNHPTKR
Method: as §2

DAPK1 = molecular target: T7, DAPK1 (Homo sapiens, UniProt P53355); test: KINOMEscan; format: binding; conditions: DAPK1; N.B.: no binding at concentrations up to 30 µM
T7 construct: purchased Eurofins Pharma Discovery (KINOMEscan)
T7 sequence (P53355 whole entry): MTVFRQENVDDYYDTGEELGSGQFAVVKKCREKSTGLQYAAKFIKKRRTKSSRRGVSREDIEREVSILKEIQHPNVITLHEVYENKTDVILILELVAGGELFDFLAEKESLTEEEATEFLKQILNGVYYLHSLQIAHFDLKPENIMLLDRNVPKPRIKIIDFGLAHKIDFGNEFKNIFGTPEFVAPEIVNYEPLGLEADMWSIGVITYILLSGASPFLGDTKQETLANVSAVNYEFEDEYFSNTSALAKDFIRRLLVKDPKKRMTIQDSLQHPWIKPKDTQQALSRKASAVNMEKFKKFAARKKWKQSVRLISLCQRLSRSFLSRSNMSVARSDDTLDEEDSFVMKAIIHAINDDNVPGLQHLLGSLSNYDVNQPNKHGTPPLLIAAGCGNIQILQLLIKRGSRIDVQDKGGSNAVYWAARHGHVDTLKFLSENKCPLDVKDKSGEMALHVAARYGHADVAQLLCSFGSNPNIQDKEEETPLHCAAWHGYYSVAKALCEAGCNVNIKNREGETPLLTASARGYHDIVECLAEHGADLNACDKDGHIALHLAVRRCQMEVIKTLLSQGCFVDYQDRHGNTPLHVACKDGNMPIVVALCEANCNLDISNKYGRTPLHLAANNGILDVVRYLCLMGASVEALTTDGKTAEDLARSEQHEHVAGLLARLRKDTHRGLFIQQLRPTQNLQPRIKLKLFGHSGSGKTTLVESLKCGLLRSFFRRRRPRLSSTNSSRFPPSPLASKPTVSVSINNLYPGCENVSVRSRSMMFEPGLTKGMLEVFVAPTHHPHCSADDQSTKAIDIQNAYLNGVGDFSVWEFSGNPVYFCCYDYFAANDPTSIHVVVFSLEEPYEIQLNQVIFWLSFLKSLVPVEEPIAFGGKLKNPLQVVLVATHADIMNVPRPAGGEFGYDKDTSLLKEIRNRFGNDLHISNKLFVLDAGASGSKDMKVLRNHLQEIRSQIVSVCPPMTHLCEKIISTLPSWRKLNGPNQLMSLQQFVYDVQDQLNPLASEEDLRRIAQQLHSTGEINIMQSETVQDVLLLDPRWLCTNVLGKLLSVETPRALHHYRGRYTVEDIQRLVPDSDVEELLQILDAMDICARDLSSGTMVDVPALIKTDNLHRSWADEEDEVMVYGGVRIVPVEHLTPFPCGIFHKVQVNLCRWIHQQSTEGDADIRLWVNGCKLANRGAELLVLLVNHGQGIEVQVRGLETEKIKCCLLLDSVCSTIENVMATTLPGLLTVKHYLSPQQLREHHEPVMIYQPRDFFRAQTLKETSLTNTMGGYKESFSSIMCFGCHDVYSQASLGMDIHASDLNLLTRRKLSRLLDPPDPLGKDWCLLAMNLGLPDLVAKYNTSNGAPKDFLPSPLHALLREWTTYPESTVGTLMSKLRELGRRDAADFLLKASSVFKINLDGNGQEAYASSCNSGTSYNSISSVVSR
Method: as §2

DAPK2 = molecular target: T8, DAPK2 (Homo sapiens, UniProt Q9UIK4); test: KINOMEscan; format: binding; conditions: DAPK2; N.B.: no binding at concentrations up to 30 µM
T8 construct: purchased Eurofins Pharma Discovery (KINOMEscan)
T8 sequence (Q9UIK4 whole entry): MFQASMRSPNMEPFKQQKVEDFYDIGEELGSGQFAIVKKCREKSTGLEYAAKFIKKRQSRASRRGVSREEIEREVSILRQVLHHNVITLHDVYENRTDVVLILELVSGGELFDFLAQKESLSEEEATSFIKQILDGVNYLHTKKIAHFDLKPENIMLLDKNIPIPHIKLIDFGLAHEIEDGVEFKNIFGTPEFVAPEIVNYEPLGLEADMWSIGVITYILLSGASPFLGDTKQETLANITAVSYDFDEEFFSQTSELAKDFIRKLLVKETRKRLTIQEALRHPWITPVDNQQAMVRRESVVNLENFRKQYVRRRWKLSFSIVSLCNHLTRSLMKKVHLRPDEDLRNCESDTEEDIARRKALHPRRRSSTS
Method: as §2

HIPK2 = molecular target: T9, HIPK2 (Homo sapiens, UniProt Q9H2X6); test: KINOMEscan; format: binding; conditions: HIPK2; N.B.: no binding at concentrations up to 30 µM
T9 construct: purchased Eurofins Pharma Discovery (KINOMEscan)
Method: as §2

PIM1 = molecular target: T10, PIM1 (Homo sapiens, UniProt P11309); test: KINOMEscan; format: binding; conditions: PIM1; N.B.: no binding at concentrations up to 30 µM
T10 construct: purchased Eurofins Pharma Discovery (KINOMEscan)
T10 sequence (P11309 whole entry): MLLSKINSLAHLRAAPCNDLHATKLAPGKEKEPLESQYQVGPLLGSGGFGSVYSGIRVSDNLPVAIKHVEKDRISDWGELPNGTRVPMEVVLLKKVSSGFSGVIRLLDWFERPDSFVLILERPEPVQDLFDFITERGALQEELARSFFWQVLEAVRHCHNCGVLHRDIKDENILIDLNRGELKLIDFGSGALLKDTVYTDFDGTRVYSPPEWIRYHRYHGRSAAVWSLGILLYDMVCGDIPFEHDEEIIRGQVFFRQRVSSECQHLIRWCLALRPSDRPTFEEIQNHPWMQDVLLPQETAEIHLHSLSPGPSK
Method: as §2

DYRK1B = molecular target: T11, DYRK1B (Homo sapiens, UniProt Q9Y463); test: KINOMEscan; format: binding; conditions: DYRK1B; N.B.: no binding at concentrations up to 30 µM
T11 construct: purchased Eurofins Pharma Discovery (KINOMEscan)
T11 sequence (Q9Y463 whole entry): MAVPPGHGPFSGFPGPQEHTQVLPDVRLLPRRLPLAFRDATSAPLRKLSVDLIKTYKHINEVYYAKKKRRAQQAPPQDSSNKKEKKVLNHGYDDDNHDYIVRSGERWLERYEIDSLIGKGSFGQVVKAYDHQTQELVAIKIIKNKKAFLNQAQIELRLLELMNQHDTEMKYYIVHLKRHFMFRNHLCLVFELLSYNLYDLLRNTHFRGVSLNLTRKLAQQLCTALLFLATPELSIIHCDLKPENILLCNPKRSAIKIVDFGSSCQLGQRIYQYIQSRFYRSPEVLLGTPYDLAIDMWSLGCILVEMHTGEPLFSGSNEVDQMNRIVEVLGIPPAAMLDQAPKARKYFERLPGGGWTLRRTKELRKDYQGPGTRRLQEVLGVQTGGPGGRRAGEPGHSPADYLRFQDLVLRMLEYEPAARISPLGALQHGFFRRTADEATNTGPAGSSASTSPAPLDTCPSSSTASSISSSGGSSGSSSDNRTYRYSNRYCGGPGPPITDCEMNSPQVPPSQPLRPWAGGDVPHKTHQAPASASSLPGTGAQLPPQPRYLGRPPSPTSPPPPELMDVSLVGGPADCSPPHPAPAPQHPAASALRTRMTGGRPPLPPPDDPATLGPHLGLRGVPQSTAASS
Method: as §2

DAPK3 = molecular target: T12, DAPK3 (Homo sapiens, UniProt O43293); test: KINOMEscan; format: binding; conditions: DAPK3; N.B.: no binding at concentrations up to 30 µM
T12 construct: purchased Eurofins Pharma Discovery (KINOMEscan)
Method: as §2

kinases = test: Published kinase profile of SP600125, selectivity score; format: binding; conditions: from published kinase profile; 39/119

CON=C1C(=O)Nc2c1ccc1c2CCCC1 [Compound 5b, 3-(Methoxyimino)-1,3,6,7,8,9-hexahydro-2H-benzo[g]indol-2-one]
inhibition of secretion of IL-1α, IL-1β, IL-6, TNF and MCP-1 [1]: ineffective

CON=C1C(=O)Nc2c1cc([N+](=O)[O-])c1c2CCCC1 [Compound 5e, 3-(Methoxyimino)-5-nitro-1,3,6,7,8,9-hexahydro-2H-benzo[g]indol-2-one]
inhibition of secretion of IL-1α, IL-1β, IL-6, TNF and MCP-1 [1]: ineffective

CCN1CCc2c(-c3ccccc3)cc3c(c2C1)NC(=O)C3=NO [NS-383, 8-ethyl-6,7,8,9-tetrahydro-5-phenyl-1H-pyrrolo[3,2-h]isoquinolin-2,3-dione-3-oxime, reference compound]
Cytotoxicity (THP-1 Cells) IC50 (µM) (THP-1 Cells): cytotoxic
IC50 at 24 h [2]: 19.2 ± 2.1 µM
Cytotoxicity (MonoMac-6 Cells) IC50 (µM) (MonoMac-6 Cells): cytotoxic
IC50 at 24 h [3]: 21.2 ± 2.4 µM
Kd (µM) (HASPIN): N.B.
Kd (µM) (HIPK3): N.B.
Kd (µM) (DYRK1A): N.B.
Kd (µM) (HIPK1): N.B.
Kd (µM) (IRAK1): N.B.
Kd (µM) (NEK10): N.B.
Kd (µM) (DAPK1): N.B.
Kd (µM) (DAPK2): N.B.
Kd (µM) (HIPK2): N.B.
Kd (PIM1): 14 ± 0.7 µM
Kd (µM) (DYRK1B): N.B.
Kd (µM) (DAPK3): N.B.

Oc1c2ccccc2c2c3c(cccc13)N=N2 [SP600125]
selectivity score, S(10) (kinases): 0.328
